{"source": "paper PMC11110727", "about": "“Exploiting thiol-functionalized benzosiloxaboroles for achieving diverse substitution patterns – synthesis, characterization and biological evaluation of promising antibacterial agents” (RSC Medicinal Chemistry, 2024)", "key": {"E. coli ATCC 25922": {"system": "E. coli ATCC 25922", "assay": "Antibacterial activity: MIC/MBC, MIC with PAβN, disc-diffusion", "assay_type": "cell-based, Escherichia coli", "details": "E. coli ATCC 25922; for MIC: Escherichia coli, ATCC25922, read-out: MIC", "outline": "(§1)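 Strains were subcultured twice on TSA at 30 °C. They were then tested by disc diffusion (EUCAST/CLSI), by CLSI broth-microdilution MIC in Mueller–Hinton II broth and by CLSI MBC, with compounds in DMSO.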"}, "K. pneumoniae ATCC 13883": {"system": "K. pneumoniae ATCC 13883", "assay": "Antibacterial activity: MIC/MBC, MIC with PAβN, disc-diffusion", "assay_type": "cell-based, Klebsiella pneumoniae", "details": "K. pneumoniae ATCC 13883; for MIC: Klebsiella pneumoniae, ATCC13883, read-out: MIC", "outline": "as §1"}, "P. mirabilis ATCC 12453": {"system": "P. mirabilis ATCC 12453", "assay": "Antibacterial activity: MIC/MBC, MIC with PAβN, disc-diffusion", "assay_type": "cell-based, Proteus mirabilis", "details": "Proteus mirabilis, ATCC12453; P. mirabilis ATCC 12453; read-out: MIC", "outline": "as §1"}, "E. cloacae DSM 6234": {"system": "E. cloacae DSM 6234", "assay": "Antibacterial activity: MIC/MBC, MIC with PAβN, disc-diffusion", "assay_type": "cell-based, Enterobacter cloacae", "details": "E. cloacae DSM 6234; for MIC: Enterobacter cloacae, DSM6234, read-out: MIC", "outline": "as §1"}, "S. marcescens ATCC 13880": {"system": "S. marcescens ATCC 13880", "assay": "Antibacterial activity: MIC/MBC, MIC with PAβN, disc-diffusion", "assay_type": "cell-based, Serratia marcescens", "details": "Serratia marcescens, ATCC13880; S. marcescens ATCC 13880; read-out: MIC", "outline": "as §1"}, "B. cepacia ATCC 25416": {"system": "B. cepacia ATCC 25416", "assay": "Antibacterial activity: MIC/MBC, disc-diffusion", "assay_type": "cell-based, Burkholderia cepacia", "details": "Burkholderia cepacia, ATCC25416; B. cepacia ATCC 25416; read-out: MIC", "outline": "as §1"}, "C. krusei ATCC 6258": {"system": "C. krusei ATCC 6258", "assay": "Antifungal activity: MIC/MFC, disc-diffusion", "assay_type": "cell-based", "details": "for MIC: Pichia kudriavzevii, ATCC6258, read-out: MIC", "outline": "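Yeast subcultured on Sabouraud dextrose agar 24–48 h at 30 °C before testing. Disc-diffusion and MIC per EUCAST and CLSI recommendations; MFC per CLSI. Compounds dissolved in DMSO.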"}, "[1]": {"system": "C. guilliermondii IBA 155", "assay": "Antifungal activity: MIC/MFC, disc-diffusion", "assay_type": "cell-based", "details": "for MIC: read-out: MIC", "outline": "(§2)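 Antimicrobial susceptibility was assessed by agar disc diffusion and MIC assays per EUCAST and CLSI standards. Minimum bactericidal and fungicidal concentrations were established according to CLSI.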"}, "[2]": {"system": "C. parapsilosis ATCC 22019", "assay": "Antifungal activity: MIC/MFC, disc-diffusion", "assay_type": "cell-based", "details": "for MIC: Lodderomyces parapsilosis, ATCC22019, read-out: MIC", "outline": "as §2"}, "C. tropicalis ATCC 750": {"system": "C. tropicalis ATCC 750", "assay": "Antifungal activity: MIC/MFC, disc-diffusion", "assay_type": "cell-based", "details": "for MIC: Candida tropicalis, ATCC750, read-out: MIC", "outline": "as §2"}, "C. tropicalis IBA 171": {"system": "C. tropicalis IBA 171", "assay": "Antifungal activity: MIC/MFC, disc-diffusion", "assay_type": "cell-based", "details": "for MIC: Candida tropicalis, IBA171, read-out: MIC", "outline": "as §2"}, "[3]": {"details": "Meyerozyma guilliermondii, IBA155"}, "[4]": {"details": "PAβN 20 μg mL^−1, MHB + 1 mM MgSO4"}}}
{"smiles": "C[Si]1(C)OB(O)c2cc(F)c(SC3CC(=O)N(c4ccc(Br)c(C(F)(F)F)c4)C3=O)c(F)c21", "note": "(stereo not drawn) [Compound 16, 1-(4-Bromo-3-(trifluoromethyl)phenyl)-3-((5,7-difluoro-3-hydroxy-1,1-dimethyl-1,3-dihydrobenzo[c][1,2,5]oxasilaborol-6-yl)thio)pyrrolidine-2,5-dione]", "values": [{"measurement": "MIC", "setting": "E. coli ATCC 25922", "value": "> 200", "unit": "µg/mL"}, {"measurement": "MIC", "setting": "K. pneumoniae ATCC 13883", "value": "> 200", "unit": "µg/mL"}, {"measurement": "MIC", "setting": "P. mirabilis ATCC 12453", "value": "> 200", "unit": "µg/mL"}, {"measurement": "MIC", "setting": "E. cloacae DSM 6234", "value": "> 200", "unit": "µg/mL"}, {"measurement": "MIC", "setting": "S. marcescens ATCC 13880", "value": "> 200", "unit": "µg/mL"}, {"measurement": "MIC", "setting": "B. cepacia ATCC 25416", "value": "> 200", "unit": "µg/mL"}, {"measurement": "diameter of inhibition zone", "setting": "C. krusei ATCC 6258; C. krusei ATCC 6258, (-) = zone not observed, paper discs 9 mm", "value": 21, "unit": "mm"}, {"measurement": "MIC", "setting": "C. krusei ATCC 6258", "value": 25, "unit": "µg/mL"}, {"measurement": "diameter of inhibition zone", "setting": "[1]; C. guilliermondii IBA 155, (-) = zone not observed, paper discs 9 mm", "value": 30, "unit": "mm"}, {"measurement": "MFC", "setting": "[1]; Meyerozyma guilliermondii, IBA155, C. guilliermondii IBA 155", "value": 50, "unit": "µg/mL"}, {"measurement": "MIC", "setting": "[1]; [3]", "value": 12.5, "unit": "µg/mL"}, {"measurement": "diameter of inhibition zone", "setting": "[2]; C. parapsilosis ATCC 22019, (-) = zone not observed, paper discs 9 mm", "value": 24, "unit": "mm"}, {"measurement": "MIC", "setting": "[2]", "value": 50, "unit": "µg/mL"}, {"measurement": "diameter of inhibition zone", "setting": "C. tropicalis ATCC 750; C. tropicalis ATCC 750, (-) = zone not observed, paper discs 9 mm", "value": 19, "unit": "mm"}, {"measurement": "MIC", "setting": "C. tropicalis ATCC 750", "value": 50, "unit": "µg/mL"}, {"measurement": "diameter of inhibition zone", "setting": "C. tropicalis IBA 171; C. tropicalis IBA 171, (-) = zone not observed, paper discs 9 mm", "value": 19, "unit": "mm"}, {"measurement": "MIC", "setting": "C. tropicalis IBA 171", "value": 50, "unit": "µg/mL"}]}
{"smiles": "C[Si]1(C)OB(O)c2cc(F)c(SCCS(=O)(=O)c3ccccc3)c(F)c21", "note": "[Compound 20, 5,7-Difluoro-1,1-dimethyl-6-((2-(phenylsulfonyl)ethyl)thio)benzo[c][1,2,5]oxasilaborol-3(1H)-ol]", "values": [{"measurement": "-fold reduction of MIC in the presence of PAβN", "setting": "E. coli ATCC 25922; [4]", "value": "32 -fold"}, {"measurement": "MIC", "setting": "E. coli ATCC 25922", "value": "> 400", "unit": "µg/mL"}, {"measurement": "-fold reduction of MIC in the presence of PAβN", "setting": "K. pneumoniae ATCC 13883; [4]", "value": "4 -fold"}, {"measurement": "MIC", "setting": "K. pneumoniae ATCC 13883", "value": "> 400", "unit": "µg/mL"}, {"measurement": "MIC", "setting": "P. mirabilis ATCC 12453", "value": "> 400", "unit": "µg/mL"}, {"measurement": "-fold reduction of MIC in the presence of PAβN", "setting": "E. cloacae DSM 6234; [4]", "value": "4 -fold"}, {"measurement": "MIC", "setting": "E. cloacae DSM 6234", "value": "> 400", "unit": "µg/mL"}, {"measurement": "MIC", "setting": "S. marcescens ATCC 13880", "value": "> 400", "unit": "µg/mL"}, {"measurement": "MIC", "setting": "B. cepacia ATCC 25416", "value": "> 400", "unit": "µg/mL"}, {"measurement": "MIC", "setting": "C. krusei ATCC 6258", "value": "> 400", "unit": "µg/mL"}, {"measurement": "MIC", "setting": "[1]; [3]", "value": "> 400", "unit": "µg/mL"}, {"measurement": "MIC", "setting": "[2]", "value": "> 400", "unit": "µg/mL"}, {"measurement": "MIC", "setting": "C. tropicalis ATCC 750", "value": "> 400", "unit": "µg/mL"}, {"measurement": "MIC", "setting": "C. tropicalis IBA 171", "value": "> 400", "unit": "µg/mL"}]}
{"smiles": "C[Si]1(C)OB(O)c2cc(F)c(SCCC(=O)ON3C(=O)CCC3=O)c(F)c21", "note": "[Compound 5, 2,5-Dioxopyrrolidin-1-yl 3-((5,7-difluoro-3-hydroxy-1,1-dimethyl-1,3-dihydrobenzo-[c][1,2,5]oxasilaborol-6-yl)thio)propanoate]", "values": [{"measurement": "MIC", "setting": "E. coli ATCC 25922", "value": "> 400", "unit": "µg/mL"}, {"measurement": "MIC", "setting": "K. pneumoniae ATCC 13883", "value": "> 400", "unit": "µg/mL"}, {"measurement": "MIC", "setting": "P. mirabilis ATCC 12453", "value": "> 400", "unit": "µg/mL"}, {"measurement": "MIC", "setting": "E. cloacae DSM 6234", "value": "> 400", "unit": "µg/mL"}, {"measurement": "MIC", "setting": "S. marcescens ATCC 13880", "value": "> 400", "unit": "µg/mL"}, {"measurement": "MIC", "setting": "B. cepacia ATCC 25416", "value": "> 400", "unit": "µg/mL"}, {"measurement": "MIC", "setting": "C. krusei ATCC 6258", "value": "> 400", "unit": "µg/mL"}, {"measurement": "MIC", "setting": "[1]; [3]", "value": "> 400", "unit": "µg/mL"}, {"measurement": "MIC", "setting": "[2]", "value": "> 400", "unit": "µg/mL"}, {"measurement": "MIC", "setting": "C. tropicalis ATCC 750", "value": "> 400", "unit": "µg/mL"}, {"measurement": "MIC", "setting": "C. tropicalis IBA 171", "value": "> 400", "unit": "µg/mL"}]}
